Test results taken from US9896418B2, “Aryl ethers and uses thereof” (Peloton Therapeutics, Inc., priority 2013, dated 2018).

Key:
[1] = test system: 786-O-Hif-Luc cells; test: Luciferase Assay; format: cell-based; conditions: about 24 hours, read-out: Mean Luciferease EC50
Protocol: A pool of infected cells were then selected against 2 μg/mL of puromycin (P8833, Sigma) for 10 days followed by limited dilution to select single clones.
Each concentration was tested in triplicate. After about 24 hours, luciferase activity was determined using ONE-Glo Luciferase Assay Reagent (E6110, Promega) following the manufacturer's recommended procedure. EC50 were calculated by using Dotmatics software.

[2] = test system: HIF-2α HIS TAG-PASB Domain; test: HIF-2α Scintillation Proximity Assay (SPA); format: binding
Protocol: The percent inhibition was determined and IC50 values were calculated using the Dotmatics system based on the following equation: % inhibition=[(high control−sample)/(high control−low control)]×100.

[3] = test system: 786-O cells; test: VEGF ELISA Assay; format: cell-based
Protocol: Each concentration had duplicated wells. About 20 hours later, medium was removed by suction and each well was supplied with 180 μL of growth medium. About 20 μl freshly-made 10× compound stocks were added to each well. […] The EC50 was calculated by GraphPad Prism using the dose-response-inhibition (four parameter) equation. The cell seeded plate was then subjected to CellTiter-Glo luminescence cell viability assay (Promega) by adding 50 μL of Celltiter Glo reagent into each well and shaking the plate for 8 minutes at 550 rpm (Thermomixer R, Eppendorf) then read luminescence signal in plate reader (3 second delay, 0.5 second/well integration time, Synergy 2 multi Detection Microplate reader) immediately.

| Compound | EC50 [1] | IC50 [2] | EC50 ([3]; 786-O cells) | EC50 ([3]; Homo sapiens, 786-0, 786-O cells) |
| --- | --- | --- | --- | --- |
| C[C@H]1C[C@@H](O)c2c(S(=O)(=O)C(F)F)ccc(Oc3cc(F)cc(Cl)c3)c21 (racemic) [Compound 7a] | 1 µM | – | – | – |
| C=CCN=S(=O)(c1ccc(Oc2cc(F)cc(C#N)c2)c2c1[C@H](O)C(F)(F)C2)C(F)(F)F (single isomer, unassigned) [Compound 307] | 1.7 µM | 0.37 µM | – | – |
| C=CCN=S(=O)(c1ccc(Oc2cc(F)cc(C#N)c2)c2c1[C@H](O)C(F)(F)C2)C(F)(F)F (single isomer, unassigned) [Compound 308] | 0.69 µM | 0.068 µM | – | – |
| CS(=O)(=NC#N)c1ccc(Oc2cc(F)cc(C#N)c2)c2c1[C@H](O)C(F)(F)C2 (single isomer, unassigned) [Example 245] | 0.061 µM | 0.032 µM | 0.16 µM | – |
| N#Cc1cc(F)cc(Oc2ccc(S(=N)(=O)CF)c3c2CC(F)(F)[C@H]3O)c1 (single isomer, unassigned) [Example 275] | 0.26 µM | 0.076 µM | – | – |
| N#CN=S(=O)(CF)c1ccc(Oc2cc(F)cc(C#N)c2)c2c1[C@H](O)[C@H](F)C2 (single isomer, unassigned) [Example 276] | 0.15 µM | 0.058 µM | – | – |
| N#CN=S(=O)(CF)c1ccc(Oc2cc(F)cc(C#N)c2)c2c1[C@H](O)[C@H](F)C2 (single isomer, unassigned) [Example 277] | 0.074 µM | 0.135 µM | – | – |
| N#CN=S(=O)(CF)c1ccc(Oc2cc(F)cc(C#N)c2)c2c1[C@H](O)C(F)(F)C2 (single isomer, unassigned) [Example 286] | 0.14 µM | 0.024 µM | – | – |
| N#Cc1cc(F)cc(Oc2ccc(S(=N)(=O)C(F)(F)F)c3c2CC(F)(F)[C@H]3O)c1 (single isomer, unassigned) [Example 305] | 0.013 µM | < 0.005 µM | – | 0.0195 µM |
| N#Cc1cc(F)cc(Oc2ccc(S(=N)(=O)C(F)(F)F)c3c2CC(F)(F)[C@H]3O)c1 (single isomer, unassigned) [Example 306] | 0.03 µM | < 0.005 µM | 0.0192 µM | – |
| CS(=O)(=NC#N)c1ccc(Oc2cc(F)cc(C#N)c2)c2c1[C@H](O)C(F)(F)[C@@H]2F (single isomer, unassigned) [Example 317] | 0.012 µM | < 0.005 µM | 0.014 µM | – |
| O=S(=O)(c1ccc(Oc2cc(F)cc(Cl)c2)c(Br)c1CO)C(F)F [Compound 74, (2-bromo-3-(3-chloro-5-fluorophenoxy)-6-((difluoromethyl)sulfonyl)phenyl)methanol] | 0.49 µM | – | – | – |
| O=S(=O)(c1ccc(Oc2cc(F)cc(Cl)c2)c(Br)c1)C(F)(F)F [Compound 116, 2-Bromo-1-(3-chloro-5-fluorophenoxy)-4-((trifluoromethyl)sulfonyl)benzene] | 3.5 µM | 0.15 µM | – | – |
| O=S(=O)(c1ccc(Oc2cc(F)cc(Cl)c2)c(Cl)c1)C(F)(F)F [Compound 128, 2-Chloro-1-(3-chloro-5-fluorophenoxy)-4-((trifluoromethyl)sulfonyl)benzene] | 3 µM | 0.15 µM | – | – |
| N#Cc1cc(F)cc(Oc2ccc(S(=N)(=O)C(F)(F)F)c3c2CCC3O)c1 (stereo not drawn) [Compound 259, 3-Fluoro-5-((1-hydroxy-7-(S-(trifluoromethyl)sulfonimidoyl)-2,3-dihydro-1H-inden-4-yl)oxy)benzonitrile] | 2 µM | 1.2 µM | – | – |
| N#Cc1cc(F)cc(Oc2ccc(S(=O)(=O)C(F)(F)F)c3c2CC(F)C3N)c1 (centres unmarked) [Compound 265, 3-((1-amino-2-fluoro-7-((trifluoromethyl)sulfonyl)-2,3-dihydro-1H-inden-4-yl)oxy)-5-fluorobenzonitrile] | 0.9 µM | 0.09 µM | – | – |
| O=S(=O)(c1ccc(Oc2ccc(F)cc2)c2c1[C@H](O)C(F)(F)C2)C(F)(F)F [Example 230, (S)-2,2-Difluoro-4-(4-fluorophenoxy)-7-((trifluoromethyl)sulfonyl)-2,3-dihydro-1H-inden-1-ol] | – | 0.028 µM | – | – |

| Compound | EC50 [1] | IC50 [2] | EC50 ([3]; 786-O cells) | EC50 ([3]; Homo sapiens, 786-0, 786-O cells) |
| --- | --- | --- | --- | --- |
| O=S(=O)(c1ccc(Oc2ccc(F)c(F)c2)c2c1[C@H](O)C(F)(F)C2)C(F)(F)F [Example 233, (S)-4-(3,4-Difluorophenoxy)-2,2-difluoro-7-((trifluoromethyl)sulfonyl)-2,3-dihydro-1H-inden-1-ol] | – | < 0.005 µM | – | – |
| N#Cc1cccc(Oc2ccc(S(=O)(=O)C(F)F)c3c2CC(F)(F)[C@H]3O)c1 [Example 236, (S)-3-((7-((difluoromethyl)sulfonyl)-2,2-difluoro-1-hydroxy-2,3-dihydro-1H-inden-4-yl)oxy)benzonitrile] | – | < 0.005 µM | – | – |
| CS(=O)(=NC#N)c1ccc(Oc2cc(F)cc(C#N)c2)c2c1[C@H](O)C(F)(F)C2 (some centres unmarked) [Example 240] | – | 0.026 µM | – | – |
| O=S(=O)(c1ccc(Oc2cc(Cl)c[n+]([O-])c2)c2c1[C@H](O)C(F)(F)C2)C(F)(F)F [Example 260, (S)-3-Chloro-5-((2,2-difluoro-1-hydroxy-7-((trifluoromethyl)sulfonyl)-2,3-dihydro-1H-inden-4-yl)oxy)pyridine 1-oxide] | – | 0.066 µM | – | – |
| N#Cc1cc(Oc2ccc(S(=O)(=O)C(F)(F)F)c3c2CC(F)(F)[C@H]3O)c[n+]([O-])c1 [Example 267, (S)-3-cyano-5-((2,2-difluoro-1-hydroxy-7-((trifluoromethyl)sulfonyl)-2,3-dihydro-1H-inden-4-yl)oxy)pyridine 1-oxide] | – | 0.092 µM | – | – |
| CS(=O)(=O)c1ccc(Oc2cc(F)cc(C#N)c2)c2c1[C@H](O)C(F)(Cl)C2 (stereo partly drawn) [Example 270, 3-(((1S)-2-chloro-2-fluoro-1-hydroxy-7-(methylsulfonyl)-2,3-dihydro-1H-inden-4-yl)oxy)-5-fluorobenzonitrile] | – | 0.097 µM | – | – |
| CS(=O)(=O)c1ccc(Oc2cc(F)cc(C#N)c2)c2c1[C@H](O)C(F)(F)[C@@H]2F [Example 292, 3-fluoro-5-[(1S,3R)-2,2,3-trifluoro-1-hydroxy-7-methylsulfonyl-indan-4-yl]oxy-benzonitrile] | – | < 0.005 µM | – | – |
| CS(=O)(=NC#N)c1ccc(Oc2cc(F)cc(C#N)c2)c2c1[C@H](O)[C@H](F)C2 (stereo partly drawn) [Example 302, N-(((2R,3S)-7-(3-cyano-5-fluorophenoxy)-2-fluoro-3-hydroxy-2,3-dihydro-1H-inden-4-yl)(methyl)(oxo)-λ^6-sulfanylidene)cyanamide] | – | 0.063 µM | – | – |
| N#Cc1cncc(Oc2ccc(C(F)(F)F)c3c2CC(F)(F)[C@H]3O)c1 [Example 303, 5-[(1S)-2,2-difluoro-1-hydroxy-7-(trifluoromethyl)indan-4-yl]oxypyridine-3-carbonitrile] | – | 0.037 µM | – | – |
| CS(=O)(=O)c1ccc(Oc2cc(F)cc(Br)c2)c2c1[C@H](O)C(F)(F)C2 [Example 304, (S)-4-(3-bromo-5-fluorophenoxy)-2,2-difluoro-7-(methylsulfonyl)-2,3-dihydro-1H-inden-1-ol] | – | < 0.005 µM | – | – |
| O=S(=O)(c1ccc(Oc2cncc(F)c2)c2c1[C@H](O)C(F)(F)C2)C(F)(F)F [Example 309, (S)-2,2-difluoro-4-((5-fluoropyridin-3-yl)oxy)-7-((trifluoromethyl)sulfonyl)-2,3-dihydro-1H-inden-1-ol] | – | < 0.005 µM | – | – |
| O=S(=O)(c1ccc(Oc2cc(F)c[n+]([O-])c2)c2c1[C@H](O)C(F)(F)C2)C(F)(F)F [Example 310, (S)-3-((2,2-difluoro-1-hydroxy-7-((trifluoromethyl)sulfonyl)-2,3-dihydro-1H-inden-4-yl)oxonio)-5-fluoropyridine 1-oxide] | – | 0.016 µM | – | – |
| N#Cc1cncc(Oc2ccc(S(=N)(=O)C(F)(F)F)c3c2CC(F)(F)[C@H]3O)c1 (stereo partly drawn) [Example 314, 5-(((1S)-2,2-difluoro-1-hydroxy-7-(S-(trifluoromethyl)sulfonimidoyl)-2,3-dihydro-1H-inden-4-yl)oxy)nicotinonitrile] | – | 0.025 µM | – | – |
| N#Cc1cncc(Oc2ccc(S(=N)(=O)C(F)(F)F)c3c2CC(F)(F)[C@H]3O)c1 (stereo partly drawn) [Example 315, 5-(((1S)-2,2-difluoro-1-hydroxy-7-(S-(trifluoromethyl)sulfonimidoyl)-2,3-dihydro-1H-inden-4-yl)oxy)nicotinonitrile] | 0.11 µM | 0.0232 µM | – | – |
| (1R,3S)-4-(3-chloro-5-fluorophenoxy)-3-(hydroxymethyl)-7-((trifluoromethyl)sulfonyl)-2,3-dihydro-1H-inden-1-ol [Compound 281] | – | 0.73 µM | – | – |
| [[(1R,3R)-7-(3-cyano-5-fluoro-phenoxy)-1,2,2-trifluoro-3-hydroxy-indan-4-yl]-methyl-oxo-λ^6-sulfanylidene]cyanamide [Compound 320] | – | 1.57 µM | – | – |
| [[(1R,3R)-7-(3-cyano-5-fluoro-phenoxy)-1,2,2-trifluoro-3-hydroxy-indan-4-yl]-methyl-oxo-λ^6-sulfanylidene]cyanamide [Compound 322] | – | 9.8 µM | – | – |
